“Also recorded” adds a separate entry of the source. Like-named read-outs stand apart in the source and are kept apart here.
Target: recombinant guinea pig liver TGase (Cavia cutleri (Guinea pig), UniProt P08587)
Assay: biochemical
Type: biochemical
Protocol: ENZYME INHIBITION BY COMPOUNDS 14a-c, 14l, 15a, 15d-k, 15m-q, 30a, 30r, 30t, 37a and 38a: For enzymology studies of these compounds, recombinant guinea pig liver TGase was expressed in Escherichia coli and effectively purified (Gillet, S. M. F. G. et al J. N., Prot. Exp. & Purif. 2004, 33, 256).
The mode of inhibition was determined for the representative lead compound 14a through non-linear regression of initial rate data to the Michaelis-Menten equation (FIG. 1).
For the ensuing enzymatic tests, recombinant guinea pig liver TGase was expressed in E. Coli and effectively purified.
Kinetic runs were recorded on a Cary 100 BIO UV-Visible spectrophotometer at 405 nm and 25° C., in a buffer composed of 50 mM CaCl2, 50 μM EDTA and 0.1 M MOPS (pH 7.0). All aqueous solutions were prepared using de-ionized water purified from the Millipore BioCell system. […] Factor XIIIa activity was measured using a coupled-enzyme assay (Day, N.; Keillor, J. W. Anal. Biochem. 1999, 274, 141). Factor XIIIa, was added to a final concentration of 0.89 μg/mL to a pH 8.5 solution (0.1 M Tris-HCl, 5 mM CaCl2 and 10 mM DDT) of 0.5 mM β-NADH, 3.3 mM Na-acetyl-L-lysine methyl ester, 10 mM α-ketoglutaric acid sodium salt and 297 μg/mL glutamate dehydrogenase (GDH).

[1] = Table 1, substituent on the cinnamoyl aromatic group, read-out: IC50 (μM), class symbol
[2] = Table 1, value in brackets, read-out: IC50
[3] = Table 3, influence of the acylated moiety, read-out: IC50 (μM), class symbol
[4] = Table 3, value in brackets, read-out: IC50

Chain of recombinant guinea pig liver TGase (P08587 whole entry): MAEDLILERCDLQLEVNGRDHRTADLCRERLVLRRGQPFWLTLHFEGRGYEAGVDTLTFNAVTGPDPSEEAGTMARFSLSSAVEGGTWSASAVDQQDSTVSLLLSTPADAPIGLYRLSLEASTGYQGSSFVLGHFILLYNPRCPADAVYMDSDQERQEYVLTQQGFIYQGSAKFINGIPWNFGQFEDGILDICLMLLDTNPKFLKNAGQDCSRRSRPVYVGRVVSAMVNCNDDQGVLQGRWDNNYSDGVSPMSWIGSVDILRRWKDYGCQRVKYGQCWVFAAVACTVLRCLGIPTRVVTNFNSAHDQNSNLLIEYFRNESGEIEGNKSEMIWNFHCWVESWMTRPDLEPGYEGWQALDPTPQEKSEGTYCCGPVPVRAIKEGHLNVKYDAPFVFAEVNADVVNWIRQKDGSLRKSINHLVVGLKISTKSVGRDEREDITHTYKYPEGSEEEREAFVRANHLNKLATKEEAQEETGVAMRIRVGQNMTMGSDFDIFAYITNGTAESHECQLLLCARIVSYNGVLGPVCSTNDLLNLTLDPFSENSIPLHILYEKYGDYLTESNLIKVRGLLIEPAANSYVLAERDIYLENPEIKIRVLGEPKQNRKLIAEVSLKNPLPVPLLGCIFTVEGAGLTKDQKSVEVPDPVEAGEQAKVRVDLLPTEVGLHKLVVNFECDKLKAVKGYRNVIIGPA

SMILES | IC50 [1] [µM] | IC50 [2] [µM] | TGase inhibitory activity (in words) | further results
O=C(C=Cc1cccc([N+](=O)[O-])c1)On1nnc2ccccc21 [Compound 14b, m-Nitrocinnamoyl oxybenzotriazolyl amide] | 20 to 50 | 24 | – | –
O=C(CCc1ccc([N+](=O)[O-])cc1)n1nnc2ccccc21 [Compound 33a, p-Nitrohydrocinnamoyl benzotriazolylamide] | – | – | significant loss of activity | IC50 (Table 2, influence of the cinnamoyl double bond, read-out: IC50 (μM), class symbol): > 50 µM; IC50 (Table 2, value in brackets or words, read-out: IC50): > 200 µM
O=C(/C=C/c1ccc([N+](=O)[O-])cc1)c1cn(Cc2ccccc2)nn1 [Compound 4a, (E)-1-(1-benzyl-1H-1,2,3-triazol-4-yl)-3-(4-nitrophenyl)prop-2-en-1-one] | – | – | – | IC50: < 20 µM; IC50 (read-out: IC50): 4.3 µM
COc1ccccc1/C=C/C(=O)n1nnc2ccccc21 [Compound 15f, o-Methoxycinnamoyl benzotriazolyl amide] | > 50 | > 100 | – | –
Cc1ccccc1/C=C/C(=O)n1nnc2ccccc21 [Compound 15i, o-Methylcinnamoyl benzotriazolyl amide] | > 50 | > 100 | – | –
O=C(/C=C/c1ccc([N+](=O)[O-])cc1)c1cccnc1 [Compound 30a, (E)-3-(4-nitrophenyl)-1-(pyridin-3-yl)prop-2-en-1-one] | 20 to 50 | 21 | as effective as the benzotriazolyl amide inhibitors | –
Nc1ccc(/C=C/C(=O)c2cccnc2)cc1 [Compound 30r, (E)-3-(4-aminophenyl)-1-(pyridin-3-yl)prop-2-en-1-one] | > 50 | 148 | as effective as the benzotriazolyl amide inhibitors | loss of potency (fold) (relative to p-nitro azachalcone 30a): 5 fold
O=C(/C=C/c1ccc([N+](=O)[O-])cc1)c1c[nH]nn1 [Compound 4o, (E)-3-(4-nitrophenyl)-1-(1H-1,2,3-triazol-4-yl)prop-2-en-1-one] | – | – | relatively high IC50 | IC50: 20 to 50 µM; IC50 (read-out: IC50): 45 µM
O=C(/C=C/c1ccccc1)n1nnc2ccccc21 [Compound 15j, Cinnamoyl benzotriazolyl amide] | > 50 | > 100 | – | –
CCCCCCCCn1cc(C(=O)/C=C/c2ccc([N+](=O)[O-])cc2)nn1 [Compound 4b, (E)-3-(4-nitrophenyl)-1-(1-octyl-1H-1,2,3-triazol-4-yl)prop-2-en-1-one] | – | – | – | IC50: 20 to 50 µM; IC50 (read-out: IC50): 28.5 µM
O=C(/C=C/c1ccc([N+](=O)[O-])cc1)Nc1ccccc1 [Compound 22a, p-Nitrocinnamoyl phenyl amide] | – | – | – | IC50 [3]: > 50 µM
COc1ccc(Cn2cc(C(=O)/C=C/c3ccc([N+](=O)[O-])cc3)nn2)cc1 [Compound 4n, (E)-1-(1-(4-methoxybenzyl)-1H-1,2,3-triazol-4-yl)-3-(4-nitrophenyl)prop-2-en-1-one] | – | – | – | IC50: < 20 µM; IC50 (read-out: IC50): 14 µM
O=C(C=Cc1ccc([N+](=O)[O-])cc1)N(Cc1ccccc1)Cc1ccccc1 [Compound 26a, p-Nitrocinnamoyl dibenzyl amide] | – | – | – | IC50 [3]: 20 to 50 µM; IC50 [4]: 57 µM; IC50 (read-out: IC50): 57 µM
O=C(C=Cc1ccc([N+](=O)[O-])cc1)On1nnc2cccnc21 [Compound 16a, p-Nitrocinnamoyl oxyazabenzotriazolyl amide] | – | – | Inhibitory activity was observed | IC50 [3]: 20 to 50 µM
O=C(/C=C/c1ccc([N+](=O)[O-])cc1)c1ccccc1 [Compound 31a, reference compound] | – | – | lack of activity | –
O=C(C=Cc1cccc(Cl)c1)On1nnc2ccccc21 [Compound 14l, m-Chlorocinnamoyl oxybenzotriazolyl amide] | 20 to 50 | 41 | – | IC50 (read-out: IC50): 41 µM
CC(C)(C)OC(=O)Nc1ccc(C=CC(=O)n2nnc3ccccc32)cc1 [Compound 15n, p-(tert-Butoxycarbonylamino)cinnamoyl benzotriazolyl amide] | < 20 | 18 | – | –
O=C(Nc1ccc(C=CC(=O)n2nnc3ccccc32)cc1)OCC1c2ccccc2-c2ccccc21 [Compound 15p, p-(9-Fluorenylmethoxycarbonylamino)cinnamoyl benzotriazolyl amide] | 20 to 50 | 25 | – | –
O=C(/C=C/c1ccc([N+](=O)[O-])cc1)c1cn(Cc2ccccn2)nn1 [Compound 4e, (E)-3-(4-nitrophenyl)-1-(1-((pyridin-2-yl)methyl)-1H-1,2,3-triazol-4-yl)prop-2-en-1-one] | – | – | lower potency | IC50: < 20 µM; IC50 (read-out: IC50): 18 µM

SMILES | IC50 [1] [µM] | IC50 [2] [µM] | TGase inhibitory activity (in words) | further results
O=C(/C=C/c1ccc([N+](=O)[O-])cc1)c1cn(Cc2cc(C(F)(F)F)cc(C(F)(F)F)c2)nn1 [Compound 4j, (E)-1-(1-(3,5-bis(trifluoromethyl)benzyl)-1H-1,2,3-triazol-4-yl)-3-(4-nitrophenyl)prop-2-en-1-one] | – | – | activity was lost | IC50 (Table 6, Huisgen [3+2] cycloaddition products, read-out: IC50 (μM), class symbol): > 50 µM; IC50 (Table 6, value in brackets, read-out: IC50): > 100 µM
O=C(/C=C/c1ccc([N+](=O)[O-])cc1)c1cn(Cc2c(F)c(F)c(F)c(F)c2F)nn1 [Compound 4i] | – | – | – | IC50: > 50 µM
Cc1cccc(/C=C/C(=O)n2nnc3ccccc32)c1 [Compound 15h, m-Methylcinnamoyl benzotriazolyl amide] | > 50 | > 100 | – | –
O=C(/C=C/c1ccc([N+](=O)[O-])cc1)N1CCc2ccccc21 [Compound 25a, p-Nitrocinnamoyl indolinyl amide] | – | – | – | IC50 [3]: > 50 µM
O=C(/C=C/c1ccc([N+](=O)[O-])cc1)Nc1cccc2ccccc12 [Compound 23a, p-Nitrocinnamoyl naphtalenyl amide] | – | – | – | IC50 [3]: > 50 µM; IC50 [4]: > 200 µM
COc1cccc(/C=C/C(=O)n2nnc3ccccc32)c1 [Compound 15e, m-Methoxycinnamoyl benzotriazolyl amide] | > 50 | > 100 | – | –
O=C(/C=C/c1ccc([N+](=O)[O-])cc1)c1cn(Cc2ccc([N+](=O)[O-])cc2)nn1 [Compound 4d, (E)-1-(1-(4-nitrobenzyl)-1H-1,2,3-triazol-4-yl)-3-(4-nitrophenyl)prop-2-en-1-one] | – | – | most efficient inhibitors in the series | IC50: < 20 µM; mode of inhibition: competitive inhibition; IC50 (read-out: IC50): 2.1 µM
O=C(/C=C/c1ccc(Cl)cc1)n1nnc2ccccc21 [Compound 15k, p-Chlorocinnamoyl benzotriazolyl amide] | > 50 | > 100 | – | –
O=C(/C=C/c1ccc([N+](=O)[O-])cc1)N1CCCCC1 [Compound 24a, p-Nitrocinnamoyl piperidinyl amide] | – | – | – | IC50: > 50 µM
O=C(C=Cc1ccc([N+](=O)[O-])cc1)On1nnc2ccccc21 [Compound 14a, p-Nitrocinnamoyl oxybenzotriazolyl amide] | 20 to 50 | 43 | Inhibitory activity was observed | IC50 [3]: 20 to 50 µM; mode of inhibition (versus acyl-donor substrate): competitive inhibition; also recorded: competitive inhibitor
O=C(/C=C/c1ccc([N+](=O)[O-])cc1)c1cn(Cc2cccc([N+](=O)[O-])c2)nn1 [Compound 4g, (E)-1-(1-(3-nitrobenzyl)-1H-1,2,3-triazol-4-yl)-3-(4-nitrophenyl)prop-2-en-1-one] | – | – | – | reduction in potency (fold): 4-7 fold; IC50 (IC50 (μM), Table 6, value in brackets): 9.4 µM; IC50 (IC50 (μM), class symbol, Table 6, Huisgen [3+2] cycloaddition products): < 20 µM
CN(Cc1ccccc1)C(=O)/C=C/c1ccc([N+](=O)[O-])cc1 [Compound 27a, p-Nitrocinnamoyl methylbenzyl amide] | – | – | – | IC50 [3]: > 50 µM
CC(=O)Nc1ccc(/C=C/C(=O)c2cccnc2)cc1 [Compound 30t, (E)-3-(4-acetylaminophenyl)-1-(pyridin-3-yl)prop-2-en-1-one] | 20 to 50 | 28 | as effective as the benzotriazolyl amide inhibitors | –
O=C(C=Cc1ccccc1[N+](=O)[O-])On1nnc2ccccc21 [Compound 14c, o-Nitrocinnamoyl oxybenzotriazolyl amide] | > 50 | > 100 | – | –
O=C(/C=C/c1ccc([N+](=O)[O-])cc1)N1CCCOC1 [Compound 29a, (E)-3-(4-Nitrophenyl)-1-(1,3-oxazinan-3-yl)prop-2-en-1-one] | – | – | little inhibitory potency | IC50 [3]: > 50 µM; IC50 [4]: > 200 µM
CC(C)(C)OC(=O)Nc1cccc(C=CC(=O)n2nnc3ccccc32)c1 [Compound 15o, m-(tert-Butoxycarbonylamino)cinnamoyl benzotriazolyl amide] | 20 to 50 | 39 | – | –
CC(C)(C)OC(=O)/C=C/c1ccc([N+](=O)[O-])cc1 [Compound 20a, p-Nitrocinnamoyl t-butyl ester] | – | – | little inhibitory activity | IC50 [3]: > 50 µM
Cc1ccc(/C=C/C(=O)n2nnc3ccccc32)cc1 [Compound 15g, p-Methylcinnamoyl benzotriazolyl amide] | > 50 | > 100 | – | –

Source: US9162991B2 (University of Ottawa, priority 2007, dated 2015)
